Source: PubChem BioAssay AID1963842 (Molecular Pharmacology Branch, DTP, NCI, 2024)

System: 677734-321-R-J1-PDC complex spheroid viability
Assay: Anticancer human tumor 677734-321-R-J1-PDC patient-derived soft tissue sarcoma cell line growth inhibition [POLQ]
Details: for IC50: curve of first compound; for viability, T/C: stronger effect = lower value
Outline: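 PDC + HUVEC + MSC complex spheroids; POLQ inhibitors ± partner drugs; top conc. at/near clinical Cmax, else 10 microM (SN-38 1 microM), half-log dilutions; 37 degrees C, 5% CO2.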

[1] = second compound 0.0316 µM, first compound 0.0316 µM
[2] = second compound 0.0316 µM, first compound 0.1 µM
[3] = second compound 0.0316 µM, first compound 0.316 µM
[4] = second compound 0.0316 µM, first compound 1 µM
[5] = second compound 0.0316 µM, first compound 3.16 µM
[6] = second compound 0.0316 µM, first compound 10 µM
[7] = second compound 0.1 µM, first compound 0.0316 µM
[8] = second compound 0.1 µM, first compound 0.1 µM
[9] = second compound 0.1 µM, first compound 0.316 µM
[10] = second compound 0.1 µM, first compound 1 µM
[11] = second compound 0.1 µM, first compound 3.16 µM
[12] = second compound 0.1 µM, first compound 10 µM
[13] = second compound 0.316 µM, first compound 0.0316 µM
[14] = second compound 0.316 µM, first compound 0.1 µM
[15] = second compound 0.316 µM, first compound 0.316 µM
[16] = second compound 0.316 µM, first compound 1 µM
[17] = second compound 0.316 µM, first compound 3.16 µM
[18] = second compound 0.316 µM, first compound 10 µM
[19] = second compound 1 µM, first compound 0.0316 µM
[20] = second compound 1 µM, first compound 0.1 µM
[21] = second compound 1 µM, first compound 0.316 µM
[22] = second compound 1 µM, first compound 1 µM
[23] = second compound 1 µM, first compound 3.16 µM
[24] = second compound 1 µM, first compound 10 µM
[25] = second compound 3.16 µM, first compound 0.0316 µM
[26] = second compound 3.16 µM, first compound 0.1 µM
[27] = second compound 3.16 µM, first compound 0.316 µM
[28] = second compound 3.16 µM, first compound 1 µM
[29] = second compound 3.16 µM, first compound 3.16 µM
[30] = second compound 3.16 µM, first compound 10 µM
[31] = second compound 10 µM, first compound 0.0316 µM
[32] = second compound 10 µM, first compound 0.1 µM
[33] = second compound 10 µM, first compound 0.316 µM
[34] = second compound 10 µM, first compound 1 µM
[35] = second compound 10 µM, first compound 3.16 µM
[36] = second compound 10 µM, first compound 10 µM
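Further: spheroids exposed to compounds for one week.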
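Wherever viability, T/C is given: 100% = vehicle DMSO treated spheroids.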

## CCc1cc2c(N3CCc4c(cc(Cn5ccnc5)cc4-c4cn(C)nc4C(F)(F)F)C3=O)ccnc2c(OC)n1 + Cc1cccc(N(C)C(=O)C2C(O)CCN2c2nc(C)cc(C(F)(F)F)c2C#N)c1
Second compound 0.0316 µM
  IC50: > 10 µM
Second compound 0.1 µM
  IC50: 9.08 µM
Second compound 0.316 µM
  IC50: 5.19 µM
Second compound 1 µM
  IC50: 7.18 µM
Second compound 3.16 µM
  IC50: 4.89 µM
Second compound 10 µM
  IC50: 1.98 µM
[1]
  viability, T/C: 104%
[2]
  viability, T/C: 94.4%
[3]
  viability, T/C: 86.5%
[4]
  viability, T/C: 96.9%
[5]
  viability, T/C: 60.5%
[6]
  viability, T/C: 58.8%
[7]
  viability, T/C: 113%
[8]
  viability, T/C: 104%
[9]
  viability, T/C: 99.4%
[10]
  viability, T/C: 84%
[11]
  viability, T/C: 59.7%
[12]
  viability, T/C: 49.7%
[13]
  viability, T/C: 100%
[14]
  viability, T/C: 110%
[15]
  viability, T/C: 92.3%
[16]
  viability, T/C: 85.8%
[17]
  viability, T/C: 59.8%
[18]
  viability, T/C: 36.5%
[19]
  viability, T/C: 94.7%
[20]
  viability, T/C: 79%
[21]
  viability, T/C: 100%
[22]
  viability, T/C: 77.8%
[23]
  viability, T/C: 75.1%
[24]
  viability, T/C: 40.2%
[25]
  viability, T/C: 110%
[26]
  viability, T/C: 79.9%
[27]
  viability, T/C: 93.2%
[28]
  viability, T/C: 76.1%
[29]
  viability, T/C: 64.6%
[30]
  viability, T/C: 31.6%
[31]
  viability, T/C: 87.9%
[32]
  viability, T/C: 67.9%
[33]
  viability, T/C: 60.5%
[34]
  viability, T/C: 65.8%
[35]
  viability, T/C: 46.3%
[36]
  viability, T/C: 30.5%

## COc1cc2cc(C(=O)CCC(=O)O)sc2cc1OC + Cc1cccc(N(C)C(=O)C2C(O)CCN2c2nc(C)cc(C(F)(F)F)c2C#N)c1
Second compound 0.0316 µM
  IC50: > 10 µM
Second compound 0.1 µM
  IC50: > 10 µM
Second compound 0.316 µM
  IC50: > 10 µM
Second compound 1 µM
  IC50: > 10 µM
Second compound 3.16 µM
  IC50: > 10 µM
Second compound 10 µM
  IC50: > 10 µM
[1]
  viability, T/C: 104%
[2]
  viability, T/C: 87.6%
[3]
  viability, T/C: 97.2%
[4]
  viability, T/C: 101%
[5]
  viability, T/C: 110%
[6]
  viability, T/C: 92.4%
[7]
  viability, T/C: 92.8%
[8]
  viability, T/C: 87%
[9]
  viability, T/C: 92%
[10]
  viability, T/C: 107%
[11]
  viability, T/C: 103%
[12]
  viability, T/C: 86%
[13]
  viability, T/C: 115%
[14]
  viability, T/C: 94.8%
[15]
  viability, T/C: 89.6%
[16]
  viability, T/C: 87.8%
[17]
  viability, T/C: 101%
[18]
  viability, T/C: 74.5%
[19]
  viability, T/C: 86.4%
[20]
  viability, T/C: 77.4%
[21]
  viability, T/C: 89.2%
[22]
  viability, T/C: 99.7%
[23]
  viability, T/C: 81.3%
[24]
  viability, T/C: 70.7%
[25]
  viability, T/C: 96.2%
[26]
  viability, T/C: 87.1%
[27]
  viability, T/C: 84.4%
[28]
  viability, T/C: 102%
[29]
  viability, T/C: 83.1%
[30]
  viability, T/C: 82.3%
[31]
  viability, T/C: 77.1%
[32]
  viability, T/C: 91.8%
[33]
  viability, T/C: 77.4%
[34]
  viability, T/C: 79.4%
[35]
  viability, T/C: 88.7%
[36]
  viability, T/C: 85.8%

## COc1ccc([C@@H](O)c2cc(-c3ncnc4cc(N5CCOCC5)ccc34)c(F)cc2Cl)nn1 + Cc1cccc(N(C)C(=O)C2C(O)CCN2c2nc(C)cc(C(F)(F)F)c2C#N)c1
Second compound 0.0316 µM
  IC50: > 10 µM
Second compound 0.1 µM
  IC50: 9.31 µM
Second compound 0.316 µM
  IC50: 9.22 µM
Second compound 1 µM
  IC50: > 10 µM
Second compound 3.16 µM
  IC50: > 10 µM
Second compound 10 µM
  IC50: 7.64 µM
[1]
  viability, T/C: 109%
[2]
  viability, T/C: 103%
[3]
  viability, T/C: 96.2%
[4]
  viability, T/C: 93.4%
[5]
  viability, T/C: 74.9%
[6]
  viability, T/C: 53.7%
[7]
  viability, T/C: 99.3%
[8]
  viability, T/C: 98.9%
[9]
  viability, T/C: 95%
[10]
  viability, T/C: 92.9%
[11]
  viability, T/C: 79.4%
[12]
  viability, T/C: 47.6%
[13]
  viability, T/C: 105%
[14]
  viability, T/C: 101%
[15]
  viability, T/C: 93.8%
[16]
  viability, T/C: 91.3%
[17]
  viability, T/C: 77.4%
[18]
  viability, T/C: 47.2%
[19]
  viability, T/C: 107%
[20]
  viability, T/C: 97.8%
[21]
  viability, T/C: 92.7%
[22]
  viability, T/C: 90.1%
[23]
  viability, T/C: 81.2%
[24]
  viability, T/C: 55.5%
[25]
  viability, T/C: 102%
[26]
  viability, T/C: 101%
[27]
  viability, T/C: 90.8%
[28]
  viability, T/C: 95.7%
[29]
  viability, T/C: 68.7%
[30]
  viability, T/C: 50.9%
[31]
  viability, T/C: 102%
[32]
  viability, T/C: 90.4%
[33]
  viability, T/C: 94.6%
[34]
  viability, T/C: 92.5%
[35]
  viability, T/C: 69.7%
[36]
  viability, T/C: 44%

## O=C(Nc1ccc(O)c(NS(=O)(=O)c2ccc(F)cc2)c1)c1ccc(-c2ccccc2)cc1 + Cc1cccc(N(C)C(=O)C2C(O)CCN2c2nc(C)cc(C(F)(F)F)c2C#N)c1
Second compound 0.0316 µM
  IC50: 4.14 µM
Second compound 0.1 µM
  IC50: 5.42 µM
Second compound 0.316 µM
  IC50: 3.71 µM
Second compound 1 µM
  IC50: 3.42 µM
Second compound 3.16 µM
  IC50: 2.08 µM
Second compound 10 µM
  IC50: 1.47 µM
[1]
  viability, T/C: 89.4%
[2]
  viability, T/C: 92.9%
[3]
  viability, T/C: 97.1%
[4]
  viability, T/C: 96.7%
[5]
  viability, T/C: 60.3%
[6]
  viability, T/C: 16%
[7]
  viability, T/C: 98.5%
[8]
  viability, T/C: 95.8%
[9]
  viability, T/C: 101%
[10]
  viability, T/C: 92.7%
[11]
  viability, T/C: 75.6%
[12]
  viability, T/C: 20.9%
[13]
  viability, T/C: 101%
[14]
  viability, T/C: 97.1%
[15]
  viability, T/C: 99.3%
[16]
  viability, T/C: 70.6%
[17]
  viability, T/C: 58%
[18]
  viability, T/C: 19.3%
[19]
  viability, T/C: 103%
[20]
  viability, T/C: 90.2%
[21]
  viability, T/C: 101%
[22]
  viability, T/C: 101%
[23]
  viability, T/C: 52.5%
[24]
  viability, T/C: 15.6%
[25]
  viability, T/C: 84.3%
[26]
  viability, T/C: 110%
[27]
  viability, T/C: 87.6%
[28]
  viability, T/C: 75.7%
[29]
  viability, T/C: 35.5%
[30]
  viability, T/C: 17.9%
[31]
  viability, T/C: 76.8%
[32]
  viability, T/C: 95.1%
[33]
  viability, T/C: 74.6%
[34]
  viability, T/C: 59.1%
[35]
  viability, T/C: 31.5%
[36]
  viability, T/C: 11.4%
